Data taken from US20070232567A1, “Formulations Of Low Dose Non-Steroidal Anti-Inflammatory Drugs And Beta-Cyclodextrin” (priority 2006, published 2007).

System: patients with moderate-to-severe post-surgical (dental) pain
Assay: Randomized, double-blind, single-dose, placebo- and comparator-controlled study of pain relief by administered dose
Type: in vivo, human
Experimental: A 336-patient, seven treatment arm, randomized, double-blind, single-dose, and placebo- and comparator-controlled, parallel-group study was conducted. Patients were randomly assigned to receive a single dose of either diclofenac sodium solubilized with hydroxypropyl-beta-cyclodextrin (hereinafter “DIC”), ketorolac tromethamine, or placebo.
Bolus IV injectable 2 ml solutions were prepared by solubilizing diclofenac sodium with hydroxypropyl-beta-cyclodextrin. The formulation strengths were as follows: • Formulation: Diclofenac sodium solubilized with hydroxypropyl-β-cyclodextrin • Strengths: 75 mg, 37.5 mg, 18.75 mg, 9.4 mg and 3.75 mg • Dosage: Bolus IV injection (no less than 15 sec) • Batch Number: 063004 (PPS4010) • Manufacturer: Manufactured for Javelin by Precision Pharma • Storage Conditions: Room temperature
Active Control/Comparator: • Formulation: Ketorolac Tromethamine • Strength: 30 mg • Dosage: Bolus IV injection (no less than 15 sec) • Batch Number: 21-430-DK • Manufacturer: Abbott Labs • Storage Conditions: Room temperature
Pain was assessed by each patient at Baseline (0 hour: Visual Analog Scale (VAS) and categorical pain intensity only), at 5, 15, 30 and 45 minutes, and at 1, 1.5, 2, 3, 4, 5, 6, 7, 8, 10, 12 and 24 hours after administration of study medication and immediately prior to the first dose of rescue medication. At each post-dose time period, levels of pain intensity (categorical and VAS) and pain relief (categorical and VAS) was assessed by each patient. […]
The presence of a dose-response was tested with a step-down testing procedure. Total pain relief (TOTPAR), peak pain relief, pain intensity difference (SPID), summed peak reduction in pain intensity difference (SPRID), and patient global evaluation was analyzed with analysis of variance (ANOVA) with treatment, center, and baseline categorical pain intensity as factors. […] Time to onset of perceptible relief and time to onset of meaningful relief was analyzed with survival analysis techniques. […] A 95% confidence interval for each estimated median time to event was calculated. […]

O=C(c1ccccc1)c1ccc2n1CCC2C(=O)O (stereo not drawn) [ketorolac, ketorolac tromethamine]
% Maximum Effect (TOTPAR) (30 mg single bolus IV injection (active comparator)): 100% | TOTPAR (Sum of Pain Relief VAS 0–100 mm ratings 0–6 hours) (30 mg single bolus IV injection (active comparator), value (SEM)): 400.3 (SEM 36) | peak analgesic response compared with that of diclofenac (about 80% pain relief) (30 milligrams): Similar
